Assay results published in US20080081841A1, “Materials and Methods for Modulating Cell Motility” (priority 2003, published 2008).
Blank lines part the entries; values can stand above or below the compound they belong to.

Key:
[1] = system: T47D-5R cells expressing Neu or Neu mutants (NYPD, YC, YD, YE); experiment: Transwell migration assay, HRG-induced; assay type: cell-based, human; conditions: for HRG-induced migration of Neu cells: starting 4 hrs after HRG treatment, RNA or protein synthesis inhibitor
Experimental: (§1) Cell migration was tested using 8 μm-pore polycarbonate membrane Transwell chambers (Corning Costar Products, Acton, Mass., USA) as described previously^3. In brief, the bottom side of the membrane was coated with 25 μg/ml rat tail collagen I (Roche). Serum starved cells were plated in the top Transwell chamber. Medium with or without 1 nM HRG-β1 (R&D systems, Inc., Minneapolis, Minn., USA) was added to the bottom chamber and cells were allowed to migrate for 24 hours. Non-migrated cells were scraped off the top of the membrane. Migrated cells were fixed in 4% formaldehyde and stained in 0.1% crystal violet. Cells were counted under a microscope in ten high power fields. Migration was expressed as cell number per mm^2. In some instances, cells were pre-incubated for 60 minutes with the U0126 MEK inhibitor (50 μM; Promega), the LY294002 PI3K inhibitor (50 μM; Calbiochem-Novabiochem Corporation, San Diego, Calif., USA), the SB203580 p38 MAPK inhibitor (20 μM; Calbiochem), a Src inhibitor (2.5 μM), the U-73122 PLC inhibitor (2 μM; Calbiochem), cycloheximide (10 μg/ml; Sigma) or 5,6-dichloro-1-β-D-ribofuranosylbenzimidazole (20 μg/ml; Fluka Chemie GmbH, Buchs, Switzerland). Cells were then allowed to migrate for 8 hours before counting.
(§2) Cells were transfected with siRNA using Oligofectamine (GIBCO) according to the manufacturer's instructions. The following 21-mer oligoribonucleotide pairs (obtained from Xeragon Inc., Huntsville, Ala., USA) were used: for Shc (accession number HSU7377) nucleotide 236 to 25640, for Memo (CGI-27; accession number AF132961) nucleotide 460 to 480 and for control LacZ (accession number M55068) nucleotide 4277 to 4297. Cells were plated for migration assay 3 days after siRNA transfection and allowed to migrate for 24 hours. Cell lysates were also prepared 3 and 4 days after transfection and analyzed by Western blotting using a specific anti-Shc antibody (BD Transduction laboratories, Heidelberg, Germany). For Memo, mRNA was extracted using RNeasy Mini (Qiagen, Cologne, Germany) and quantitative radioactive PCR^41 was performed using Memo specific primers (forward from nucleotide 90 to 111 and reverse from nucleotide 235 to 256).
Peptides were delivered into cells using Chariot protein transfection reagent (Active Motif, Rixensart, Belgium) according to the instruction manual. 16 aa-peptides spanning Tyr residue 1201 of Neu (YC peptide) and Tyr residue 1227 of Neu (YD peptide) were obtained from Neosystem (Strasbourg, France) in phosphorylated and non phosphorylated forms. Cells were plated for migration 30 minutes after peptide transfection and the assay was finished after 22 hours.

[2] = molecular target: T1, ErbB2 (Homo sapiens, UniProt P04626); experiment: Shc immunoprecipitation in SKBr3 cells; assay type: cell-based
T1 construct: endogenous in cells; host or cells: SKBr3 breast carcinoma cells
T1 sequence (P04626 23-1255): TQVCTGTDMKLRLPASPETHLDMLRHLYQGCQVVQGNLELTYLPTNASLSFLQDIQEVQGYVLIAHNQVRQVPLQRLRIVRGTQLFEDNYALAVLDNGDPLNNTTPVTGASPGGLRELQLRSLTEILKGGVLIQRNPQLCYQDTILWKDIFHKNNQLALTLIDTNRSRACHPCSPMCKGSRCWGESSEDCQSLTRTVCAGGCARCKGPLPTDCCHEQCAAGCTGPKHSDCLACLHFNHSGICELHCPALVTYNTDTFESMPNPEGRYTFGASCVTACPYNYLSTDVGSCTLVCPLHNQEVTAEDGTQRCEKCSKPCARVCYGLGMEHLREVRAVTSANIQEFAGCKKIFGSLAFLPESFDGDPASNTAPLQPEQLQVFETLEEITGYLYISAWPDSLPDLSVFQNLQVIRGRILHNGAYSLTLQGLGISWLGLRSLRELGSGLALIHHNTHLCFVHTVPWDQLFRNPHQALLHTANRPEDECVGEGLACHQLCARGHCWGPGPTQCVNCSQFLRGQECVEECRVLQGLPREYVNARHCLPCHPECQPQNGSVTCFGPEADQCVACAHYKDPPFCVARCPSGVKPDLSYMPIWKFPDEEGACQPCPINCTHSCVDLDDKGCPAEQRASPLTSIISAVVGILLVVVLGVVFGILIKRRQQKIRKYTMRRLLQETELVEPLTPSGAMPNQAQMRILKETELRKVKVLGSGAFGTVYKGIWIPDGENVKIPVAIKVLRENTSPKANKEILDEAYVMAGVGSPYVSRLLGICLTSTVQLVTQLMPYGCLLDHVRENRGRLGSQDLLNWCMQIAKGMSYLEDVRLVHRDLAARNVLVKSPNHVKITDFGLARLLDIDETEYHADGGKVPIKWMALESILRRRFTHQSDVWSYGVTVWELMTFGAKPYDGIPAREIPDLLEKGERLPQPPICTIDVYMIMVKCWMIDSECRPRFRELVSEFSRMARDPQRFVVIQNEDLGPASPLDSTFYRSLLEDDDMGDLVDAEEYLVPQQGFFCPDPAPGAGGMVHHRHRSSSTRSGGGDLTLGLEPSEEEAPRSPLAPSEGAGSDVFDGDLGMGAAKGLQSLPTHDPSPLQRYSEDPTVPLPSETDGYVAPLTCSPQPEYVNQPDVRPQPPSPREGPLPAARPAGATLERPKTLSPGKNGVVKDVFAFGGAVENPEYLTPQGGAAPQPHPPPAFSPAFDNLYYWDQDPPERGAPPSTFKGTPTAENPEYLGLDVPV

[3] = system: T47D and SKBr3 cells; experiment: Actin staining / lamellipodia morphology; assay type: cell-based; conditions: nocodazole-treated cells
Experimental: Cells were grown on glass coverslips (Falcon, Le Pont De Claix, France) coated with 25 μg/ml rat tail collagen I, serum starved overnight and stimulated with 1 nM HRG-β1 for different times. Cells were fixed in 4% formaldehyde in phosphate buffer saline (PBS) for 20 minutes, permeabilized in 0.2% Triton X-100 for 10 minutes, blocked with 1% bovine serum albumin in PBS for 20 minutes before addition of anti-Myc antibody (Santa Cruz) and Alexa-Fluor 568 goat anti-mouse IgG (Molecular Probes, Leiden, The Netherlands). DNA was counterstained with 0.25 mg/ml Hoechst No. 33342 (Sigma). Actin was stained for 45 minutes with 2 U/ml TRITC-labeled phalloidin (Molecular Probes). Images were recorded with an Axioskop Zeiss microscope coupled to a Sony 3CCD camera or an Olympus IX70 microscope linked to the DeltaVision workstation (Applied Precision, Issaquah, Wa)
F-actin was visualised with TRITC-labelled phalloidin.

[4] = system: T47D and SKBr3 cells; experiment: HRG-induced microtubule outgrowth; assay type: cell-based; conditions: nocodazole-treated cells
[5] = system: T47D cells; experiment: Transwell migration assay; assay type: cell-based, human; conditions: FIG. 1a, 7f
Experimental: as §1
as §2, with “Cells were plated for migration assay 3 days after siRNA transfection and allowed to migrate for 24 hours.” left out

Compound: C[C@@H]1C[C@@H]([C@H](O)CC2CC(=O)NC(=O)C2)C(=O)[C@@H](C)C1 [cycloheximide]
- migration rate of Neu cells ([1]; compared with NYPD cells, FIG. 4a): reduced the migration rate of Neu cells to that of NYPD cells
- migration of YD cells, cycloheximide treatment and Memo knock-down compared ([1]; effects not additive, FIG. 7d): blocked to a similar extent
- HRG-induced migration of Neu cells ([1]; FIG. 4a): strongly blocked

- CGI-27's ability to associate with Shc [2]: did not influence
- ErbB2 receptor level in Shc immunoprecipitates [2]: lowered
Compound: C[C@@H](Nc1ncnc2[nH]c(-c3ccc(O)cc3)cc12)c1ccccc1 [PKI166]

Compound: COC(=O)Nc1nc2ccc(C(=O)c3cccs3)cc2[nH]1 [nocodazole]
- lamellipodia formation [3]: still capable of forming lamellipodia
- microtubule growth [4]: do not grow microtubules

Compound: FGF2: Fibroblast growth factor (FGF) 2
- stimulation of T47D cell migration by ligand [5]: stimulated T47D cell migration

Compound: OC[C@H]1O[C@@H](n2cnc3cc(Cl)c(Cl)cc32)[C@H](O)[C@@H]1O [DRB, 5,6-Dichloro-1-β-D-ribofuranosylbenzimidazole]
- HRG-induced migration of Neu cells ([1]; FIG. 4a): strongly blocked

Compound: insulin: insulin
- stimulation of T47D cell migration by ligand [5]: to a lower degree

Compound: EGF: epidermal growth factor (NSDSECPLSHDGYCLHDGVCMYIEALDKYACNCVVGYIGERCQYRDLKWWELR; Epidermal growth factor; UniProt P01133 971-1023, looked up)
- stimulation of T47D cell migration by ligand [5]: to a lower degree
